Data set [1] deals with ACE2^hi cells (ACE2 high-expressing HEK293T cells). Kind of data set: Cytotoxicity assay. The note with it: for effect on activity (survival) of ACE2^hi cells: at concentrations below 100 μM; for cytotoxicity to cells: at 20 μM. Type of data set: cell-based.
The conditions of data set [2]: preclinical and clinical studies; cited from earlier work.
The next data set addresses ACE2 (Homo sapiens, UniProt Q9BYF1). Type of data set: binding. The note with it: mobile phase 10 mM Na2HPO4 / phosphate-buffer saline pH 7.4; flow rate 0.2 mL/min; 37 °C; UV 254 nm.

SMILES strings stand for the structures.

ACE2, sequence (Q9BYF1 18-805): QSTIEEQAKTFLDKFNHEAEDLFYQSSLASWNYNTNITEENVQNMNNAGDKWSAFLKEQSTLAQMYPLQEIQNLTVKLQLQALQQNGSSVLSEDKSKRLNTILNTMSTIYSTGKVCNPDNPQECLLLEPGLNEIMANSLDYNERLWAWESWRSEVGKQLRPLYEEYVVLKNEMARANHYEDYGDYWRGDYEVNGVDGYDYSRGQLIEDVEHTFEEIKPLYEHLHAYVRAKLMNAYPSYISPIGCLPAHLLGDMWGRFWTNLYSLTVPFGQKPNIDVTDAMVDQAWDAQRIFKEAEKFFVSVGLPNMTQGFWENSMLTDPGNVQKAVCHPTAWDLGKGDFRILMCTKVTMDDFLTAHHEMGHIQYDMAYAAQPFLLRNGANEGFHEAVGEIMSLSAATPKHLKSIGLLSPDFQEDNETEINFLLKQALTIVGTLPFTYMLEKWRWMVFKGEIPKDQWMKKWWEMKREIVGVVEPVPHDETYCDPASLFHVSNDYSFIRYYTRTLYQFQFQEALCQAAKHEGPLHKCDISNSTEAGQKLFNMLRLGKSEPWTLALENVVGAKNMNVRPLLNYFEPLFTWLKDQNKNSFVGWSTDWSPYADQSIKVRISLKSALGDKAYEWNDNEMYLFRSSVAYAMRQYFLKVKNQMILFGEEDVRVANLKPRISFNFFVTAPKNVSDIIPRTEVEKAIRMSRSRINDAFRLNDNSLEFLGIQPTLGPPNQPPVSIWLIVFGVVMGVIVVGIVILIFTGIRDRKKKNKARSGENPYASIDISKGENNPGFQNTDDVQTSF

As for `O=C1CCc2ccc(OCCCCN3CCN(c4cccc(Cl)c4Cl)CC3)cc2N1` [Ari, aripiprazole], the “effect on activity (survival) of ACE2^hi cells” value in data set [1] (CCK-8, 24 h) was “no significant effect”. Also, the cytotoxicity to cells entry in data set [1] is given as “no cytotoxicity”.

On to `CN(C)CCCN1c2ccccc2Sc2ccc(Cl)cc21` [Chl, Chlorpromazine], for which the cytotoxicity to cells entry in data set [1] is recorded as “no cytotoxicity”. The “concentration in the lungs relative to plasma” value in data set [2] is reported as 20–200 times higher than in plasma.

Take `OCCOCCN1CCN(C2=Nc3ccccc3Sc3ccccc32)CC1` [Que, quetiapine]: in data set [1] (CCK-8, 24 h, at concentrations below 50 μM), the “difference in cell viability versus control group” value is recorded as “no significant difference”. Besides, the cytotoxicity to cells result in data set [1] is recorded as “no cytotoxicity”.

Take `CSc1ccc2c(c1)N(CCC1CCCCN1C)c1ccccc1S2` (stereo not drawn) [Thi, thioridazine]: the “retention time (tR) on ACE2-CMC column” value at ACE2 was determined as 51.604 min. In addition, the cytotoxicity to cells entry in data set [1] was “no cytotoxicity”.

As for `CCN(CC)CCNC(=O)c1cc(S(C)(=O)=O)ccc1OC` [Tia, tiapride], on ACE2, the “retention time (tR) on ACE2-CMC column” value was 7.789 min. Also, the “effect on activity (survival) of ACE2^hi cells” value in data set [1] (CCK-8, 24 h) is given as “no significant effect”. In data set [1], the cytotoxicity to cells result was “no cytotoxicity”.

In the case of `CN1CCN(CCCN2c3ccccc3Sc3ccc(C(F)(F)F)cc32)CC1` [Tri, Trifluoperazine], the cytotoxicity to cells result in data set [1] is recorded as “no cytotoxicity”.
